The target in the test is human PDHK2 (hPDHK2) (Homo sapiens (Human), UniProt Q15119). Kind of test: Inhibitory action of PDHK activity in vitro (kinase reaction, residual PDH activity measured). Format: biochemical.
Where [1] appears, read: PDHK inhibitory activity, class symbol of IC50.
Setting [2] is: read-out: PDHK inhibitory activity IC50.
The mark [3] stands for this setting: PDHK inhibitory activity (class symbol).

Where two headings read alike, the source gives them in different places. A value given as a limit tells only on which side of the number the result lay.

One may read the IC50 as the midpoint of a concentration-inhibition curve.

`CN(C)C(=O)CCCCOc1ccc2c(c1)C(O)(C(F)(F)F)c1ccccc1-2` (stereo not shown) [compound 299]: the 50% inhibitory concentration (IC50) is 0.1 to 1 µM under setting [1] and 0.235 µM under setting [2].

With `O=C1CC[C@@H](COc2ccc3c(c2)C(O)(C(F)(F)F)c2ccccc2-3)N1` (stereo partly shown) [compound 446], the 50% inhibitory concentration (IC50) was 0.1 to 1 µM under setting [1] and 0.565 µM under setting [2].

With `CN(C(=O)c1ccc2c(c1)C(O)(C(F)(F)F)c1ccccc1-2)C1CCC1` (stereo not shown) [compound 57], the IC50 under setting [1] was greater than 1 µM and the half-inhibitory concentration (IC50) under setting [2] stood at 5.62 µM.

Regarding `O=C1CCCN1CCCc1cc(CO)c2c(c1)C(O)(C(F)(F)F)c1ccccc1-2` (stereo not shown) [compound 656], the IC50 is 0.1 to 1 µM under setting [3] and 0.172 µM under setting [2].

As to `CN(C)C(=O)C1CCN(C(=O)c2ccc3c(c2)C(O)(C(F)(F)F)c2ccccc2-3)C1` (stereo not shown) [compound 229], the IC50 under setting [1] fell in the range of 0.1 to 1 µM and the 50% inhibitory concentration (IC50) under setting [2] was found to be 0.552 µM.

In the case of `OC1(C(F)(F)F)c2ccccc2-c2ccc(-c3cccnc3)cc21` (stereo not shown) [compound 102], the 50% inhibitory concentration (IC50) reads like this: under setting [1], 0.1 to 1 µM; under setting [2], 0.323 µM.

Regarding `CCc1cc(C(N)=O)c2c(c1)C(O)(C(F)(F)F)c1ccccc1-2` (stereo not shown) [compound 633], the IC50 runs as follows: under setting [3], 0.1 to 1 µM; under setting [2], 0.56 µM.

On to `CNC(=O)Cn1cc(-c2cc(C)cc3c2-c2ccccc2C3(O)C(F)(F)F)cn1` (stereo not shown) [compound 512], for which the IC50 was less than 0.1 µM under setting [1] and 0.038 µM under setting [2].

As for `OCC1(n2cc(-c3cc(F)cc4c3-c3ccccc3[C@]4(O)C(F)(F)F)cn2)CCCC1` (stereo in doubt) [compound 548], the IC50 runs as follows: (PDHK inhibitory activity IC50 (μmol/L)) 0.016 µM; under setting [1], less than 0.1 µM.

In the case of `O=C(O)CCCOc1cc(Cl)c2c(c1)C(O)(C(F)(F)F)c1ccccc1-2` (stereo not shown) [compound 478], the concentration for half-maximal inhibition (IC50) reads like this: under setting [1], 0.1 to 1 µM; under setting [2], 0.433 µM.

As for `COc1cc(-c2cnn(C)c2)c2c(c1)C(O)(C(F)(F)F)c1ccccc1-2` (stereo not shown) [compound 463], the 50% inhibitory concentration (IC50) by setting is: under setting [1], less than 0.1 µM; under setting [2], 0.047 µM.

For `COC(=O)c1cc(C)c2c(c1)C(O)(C(F)(F)F)c1ccccc1-2` (stereo not shown) [compound 45], the concentration for half-maximal inhibition (IC50) by setting is: under setting [1], 0.1 to 1 µM; under setting [2], 0.247 µM.

On to `Cn1cc(-c2cc(OCCCCC(=O)O)cc3c2-c2ccccc2C3(O)C(F)(F)F)cn1` (single isomer, unassigned) [compound 552], for which the IC50 is less than 0.1 µM under setting [1] and 0.017 µM under setting [2].

As to `CN(C)c1ccc2c(c1)C(O)(C(F)(F)F)c1ccccc1-2` (stereo not shown) [compound 80], the half-inhibitory concentration (IC50) runs as follows: under setting [1], greater than 1 µM; under setting [2], 8.25 µM.

Turning to `NC(=O)C1CCN(C(=O)c2ccc3c(c2)C(O)(C(F)(F)F)c2ccccc2-3)C1` (stereo not shown) [compound 226], the half-inhibitory concentration (IC50) reads like this: under setting [1], greater than 1 µM; under setting [2], 1.14 µM.

Take `OC1(C(F)(F)F)c2ccccc2-c2cccc(Cl)c21` (stereo not shown) [compound 8]: the concentration for half-maximal inhibition (IC50) under setting [1] was greater than 1 µM and the IC50 under setting [2] turned out to be 45.6 µM.

As for `CN(C)C(=O)c1ccc(-c2ccc3c(c2)C(O)(C(F)(F)F)c2ccccc2-3)cc1` (stereo not shown) [compound 192], the concentration for half-maximal inhibition (IC50) is, setting by setting: under setting [1], 0.1 to 1 µM; under setting [2], 0.182 µM.

`Cn1cc(-c2cccc3c2-c2ccccc2C3(O)C(F)(F)F)cn1` (stereo not shown) [compound 263]: the half-maximal inhibitory concentration (IC50) is, setting by setting: under setting [1], 0.1 to 1 µM; under setting [2], 0.133 µM.

Turning to `Cn1cc(-c2cc(N3CCOCC3)cc3c2-c2ccccc2C3(O)C(F)(F)F)cn1` (stereo not shown) [compound 569], the IC50 was less than 0.1 µM under setting [1] and 0.044 µM under setting [2].

For `CN(C)C(=O)COc1ccc2c(c1)C(O)(C(F)(F)F)c1ccccc1-2` (stereo not shown) [compound 290], the IC50 under setting [1] is 0.1 to 1 µM and the IC50 under setting [2] stood at 0.793 µM.

For the compound `CC(C)(C)OC(=O)NCCOc1ccc2c(c1)C(O)(C(F)(F)F)c1ccccc1-2` (stereo not shown) [compound 323], the IC50 under setting [1] was in the range of 0.1 to 1 µM and the half-inhibitory concentration (IC50) under setting [2] turned out to be 0.362 µM.

`CC(C)OC(=O)N1CCN(c2ccc3c(c2)C(O)(C(F)(F)F)c2ccccc2-3)CC1` (stereo not shown) [compound 212]: the IC50 by setting is: under setting [1], 0.1 to 1 µM; under setting [2], 0.685 µM.

With `CC(=O)N1CCN(c2ccc3c(c2)C(O)(C(F)(F)F)c2ccccc2-3)CC1` (stereo not shown) [compound 165], the concentration for half-maximal inhibition (IC50) was 0.1 to 1 µM under setting [1] and 0.957 µM under setting [2].

Take `CCCc1cc(-c2cnn(C(CO)CO)c2)c2c(c1)C(O)(C(F)(F)F)c1ccccc1-2` (stereo not shown) [compound 652]: the IC50 under setting [3] was less than 0.1 µM and the concentration for half-maximal inhibition (IC50) under setting [2] amounted to 0.036 µM.

As to `CS(=O)(=O)c1cccc2c1-c1ccccc1C2(O)C(F)(F)F` (stereo not shown) [compound 143], the IC50 under setting [1] is greater than 1 µM and the half-maximal inhibitory concentration (IC50) under setting [2] was greater than 10 µM.

Regarding `O=C1CCC(CO)N1CCOc1ccc2c(c1)C(O)(C(F)(F)F)c1ccccc1-2` (stereo not shown) [compound 450], the IC50 under setting [1] was 0.1 to 1 µM and the half-inhibitory concentration (IC50) under setting [2] amounted to 0.442 µM.

Regarding `O=C(c1ccc2c(c1)C(O)(C(F)(F)F)c1ccccc1-2)c1cccs1` (stereo not shown) [compound 99], the IC50 under setting [1] was in the range of 0.1 to 1 µM and the IC50 under setting [2] came out at 0.718 µM.

`O=C(O)C1CN(C(=O)c2ccc3c(c2)C(O)(C(F)(F)F)c2ccccc2-3)C1` (stereo not shown) [compound 121]: the IC50 was greater than 1 µM under setting [1] and 3.68 µM under setting [2].

As for `NC(=O)c1ccc2c(c1)-c1ccccc1C2(O)C(F)(F)F` (stereo not shown) [compound 42], the 50% inhibitory concentration (IC50) runs as follows: under setting [1], greater than 1 µM; under setting [2], 5.56 µM.

As for `COC(=O)Nc1cccc2c1-c1ccccc1C2(O)C(F)(F)F` (stereo not shown) [compound 130], the IC50 was greater than 1 µM under setting [1] and greater than 10 µM under setting [2].

Consider `NC(=O)COc1cc(-c2cn[nH]c2)c2c(c1)C(O)(C(F)(F)F)c1ccccc1-2` (stereo not shown) [compound 503], for which the IC50 was less than 0.1 µM under setting [1] and 0.045 µM under setting [2].

`COC(=O)c1cccc2c1-c1ccc(F)cc1C2(O)C(F)(F)F` (stereo not shown) [compound 219]: the half-maximal inhibitory concentration (IC50) under setting [1] was greater than 1 µM and the IC50 under setting [2] is greater than 10 µM.

Consider `COC(=O)c1cccc2c1-c1ccccc1C2(O)C(F)(F)F` (stereo not shown) [compound 27], for which the IC50 under setting [1] lay within 0.1 to 1 µM and the concentration for half-maximal inhibition (IC50) under setting [2] is 0.848 µM.

Consider `NC(=O)c1cc(-c2cnn(CC3CCCCC3)c2)cc2c1-c1ccccc1C2(O)C(F)(F)F` (single isomer, unassigned) [compound 667, 2-(1-cyclohexylmethyl-1H-pyrazol-4-yl)-9-hydroxy-9-trifluoromethyl-9H-fluorene-4-carboxylic acid amide], for which the 50% inhibitory concentration (IC50) is less than 0.1 µM under setting [3] and 0.015 µM under setting [2].

Regarding `O=C1COCCN1CCOc1ccc2c(c1)C(O)(C(F)(F)F)c1ccccc1-2` (stereo not shown) [compound 490], the IC50 is, setting by setting: under setting [1], 0.1 to 1 µM; under setting [2], 0.223 µM.

As for `O=C(c1cc(-c2cccnc2)c2c(c1)C(O)(C(F)(F)F)c1ccccc1-2)N1CCC1` (stereo not shown) [compound 242], the half-maximal inhibitory concentration (IC50) by setting is: under setting [1], less than 0.1 µM; under setting [2], 0.086 µM.

With `CC(C)C(=O)N1CCN(c2ccc3c(c2)C(O)(C(F)(F)F)c2ccccc2-3)CC1` (stereo not shown) [compound 208], the IC50 by setting is: under setting [1], 0.1 to 1 µM; under setting [2], 0.677 µM.

`CC(=O)c1cc(OCCN2CCCC2=O)cc2c1-c1ccccc1C2(O)C(F)(F)F` (stereo not shown) [compound 599]: the concentration for half-maximal inhibition (IC50) is, setting by setting: under setting [1], less than 0.1 µM; under setting [2], 0.033 µM.

Regarding `CCCOC1CN(C(=O)c2ccc3c(c2)C(O)(C(F)(F)F)c2ccccc2-3)C1` (stereo not shown) [compound 105], the IC50 by setting is: under setting [1], 0.1 to 1 µM; under setting [2], 0.259 µM.

As to `CCCNC(=O)c1ccc2c(c1)C(O)(C(F)(F)F)c1ccccc1-2` (stereo not shown) [compound 316], the half-maximal inhibitory concentration (IC50) under setting [1] is greater than 1 µM and the IC50 under setting [2] was 4.48 µM.

Consider `Cn1cc(-c2cc(CO)c3c(c2)C(O)(C(F)(F)F)c2ccccc2-3)cn1` (stereo not shown) [compound 570], for which the 50% inhibitory concentration (IC50) by setting is: under setting [1], 0.1 to 1 µM; under setting [2], 0.11 µM.
